US20260315609A1, “MIXED VASOPRESSIN RECEPTOR AGONIST-ANTAGONIST FOR TREATING END-STAGE LIVER DISEASE AND COMPLICATIONS ASSOCIATED THEREOF” (FERRING B.V., priority 2022, published 2026)
Read-outs that look alike come from different tables or passages of the source. Starred links: 1 amine or outer side, 2 acyl side, 3 side chain; linkers in the order of their positions; H or OH if unused. Positions of bridges follow the written chain, without caps; N, C: chain ends. Non-standard residues stand in square brackets, D forms with d. Residues, ends and D or L forms follow the SMILES beside them. Chains are numbered I, II in the order given. *: point of attachment. isoGln = NC(=O)[C@H](CCC(=O)[*:2])N[*:1]; εLys = N[C@@H](CCCCN[*:1])C(=O)[*:2]; Dab = NCC[C@H](N)C(=O)O; PhAc = O=C(Cc1ccccc1)*

What was measured:
[1] = PK of Compound 1, 6-hour intravenous infusion in healthy men and women (Period 1); assay type: in vivo, human
Experimental: The administered volume was recorded for each subject.
In some instances, endpoints of the study were: vital signs (e.g., supine blood pressure, pulse, and body temperature), electrocardiogram (ECG) (e.g., intervals, rhythm, and morphology), cardiac function (e.g., cardiac output using echocardiography), peripheral blood flow/tissue perfusion (e.g., by skin color), venous blood gases (e.g., lactate), urinary output, clinical chemistry, hematology, hemostasis, and urinalysis, adverse events (AEs) (e.g., type, frequency, and intensity), pharmacokinetics (e.g., AUC, AUCt, AUCτ, % Extrap AUC, Cmax, tmax, CL, Vz, t1/2, MRT, Vss, F, Ae, and CLR), and metabolite pattern in plasma and urine.

[2] = system: methionine/choline-deficient (MCD) diet rats; assay: ΔPP in methionine/choline-deficient (MCD) diet rats; assay type: in vivo, rat; details: for Δ PP (mean): SC, MCD diet rats

CC[C@H](C)[C@@H]1NC(=O)[C@H](Cc2ccccc2)NC(=O)[C@@H](N)CSSC[C@@H](C(=O)N2CCC[C@H]2C(=O)N[C@@H](CCNC(=O)[C@@H](N)CCCCNC(=O)[C@H](CCCCNC(C)=O)NC(=O)CC[C@H](NC(=O)[C@H](CCCNC(=N)N)NC(=O)[C@@H]2CCCN2C(=O)[C@H](C)NC(=O)[C@H](CC(N)=O)NC(=O)[C@H](CCC(N)=O)NC(=O)[C@H](Cc2ccccc2)NC(=O)[C@@H](Cc2ccc(OC)cc2)NC(=O)Cc2ccccc2)C(N)=O)C(=O)NCC(N)=O)NC(=O)[C@H](CC(N)=O)NC(=O)[C@H](CCC(N)=O)NC1=O [Compound 1, Glycinamide, L-cysteinyl-L-phenylalanyl-L-isoleucyl-L-glutaminyl-L-asparaginyl-L-cysteinyl-L-prolyl-N4-(phenylacetyl-O-methyl-D-tyrosyl-L-phenylalanyl-L-glutaminyl-L-asparaginyl-L-alanyl-L-prolyl-L-arginyl-L-isoglutamyl-N5-acetyl-L-lysyl-L-ε-lysyl)-L-2,4-diaminobutyryl-, cyclic (1→6)-disulfide] (I: H-CFIQNCP[Dab]G-NH2 / II: PhAc-[dY](Me)FQNAPR[isoGln]K(Ac)[εLys]; disulfide I:1-I:6; amide I:8-II:C)
CL renal ([1]; human, in vivo, iv, 0.1 mg, i.v. 0.1 mg, read-out: Renal CL, geometric mean (converted)): 14.5 mL/min | CL renal ([1]; human, in vivo, iv, 0.1 mg, i.v. 0.1 mg, read-out: Renal CL, mean (converted)): 14.5 mL/min | CL renal ([1]; human, in vivo, iv, 0.3 mg, i.v. 0.3 mg, read-out: Renal CL, geometric mean (converted)): 11 mL/min | CL renal ([1]; human, in vivo, iv, 0.3 mg, i.v. 0.3 mg, read-out: Renal CL, mean (converted)): 11 mL/min | CL renal ([1]; human, in vivo, iv, 0.45 mg, i.v. 0.45 mg, read-out: Renal CL, geometric mean (converted)): 14 mL/min | CL renal ([1]; human, in vivo, iv, 0.45 mg, i.v. 0.45 mg, read-out: Renal CL, mean (converted)): 14.8 mL/min | CL renal ([1]; human, in vivo, iv, 0.6 mg, i.v. 0.6 mg, read-out: Renal CL, geometric mean (converted)): 15.5 mL/min | CL renal ([1]; human, in vivo, iv, 0.6 mg, i.v. 0.6 mg, read-out: Renal CL, mean (converted)): 15.8 mL/min | CL renal ([1]; human, in vivo, iv, 0.9 mg, i.v. 0.9 mg, read-out: Renal CL, geometric mean (converted)): 14.8 mL/min | CL renal ([1]; human, in vivo, iv, 0.9 mg, i.v. 0.9 mg, read-out: Renal CL, mean (converted)): 15.8 mL/min | Vd ([1]; human, in vivo, iv, read-out: distribution volume (summary)): 15 to 20 L | terminal half-life (summary) ([1]; i.v.): about 1.5 hours | total clearance (summary) ([1]; i.v.): about 13 L/h | AUC, geometric mean ([1]; i.v. 0.1 mg): 6.96 ng·h/mL | AUC, mean ([1]; i.v. 0.1 mg): 7.01 ng·h/mL | Cmax, geometric mean ([1]; i.v. 0.1 mg): 1.18 ng/mL | Cmax, mean ([1]; i.v. 0.1 mg): 1.19 ng/mL | T1/2, harmonic mean ([1]; i.v. 0.1 mg): 1.2 h | Tot. CL, geometric mean ([1]; i.v. 0.1 mg): 14.4 L/h | Tot. CL, mean ([1]; i.v. 0.1 mg): 14.5 L/h | Vss, geometric mean ([1]; i.v. 0.1 mg): 21.7 L | Vss, mean ([1]; i.v. 0.1 mg): 21.8 L | tmax, mean ([1]; i.v. 0.1 mg): 5.4 h | tmax, median ([1]; i.v. 0.1 mg): 5.0 h | AUC, geometric mean ([1]; i.v. 0.3 mg): 24.6 ng·h/mL | AUC, mean ([1]; i.v. 0.3 mg): 24.9 ng·h/mL | Cmax, geometric mean ([1]; i.v. 0.3 mg): 4.45 ng/mL | Cmax, mean ([1]; i.v. 0.3 mg): 4.49 ng/mL | T1/2, harmonic mean ([1]; i.v. 0.3 mg): 1.2 h | Tot. CL, geometric mean ([1]; i.v. 0.3 mg): 12.2 L/h | Tot. CL, mean ([1]; i.v. 0.3 mg): 12.3 L/h | Vss, geometric mean ([1]; i.v. 0.3 mg): 14.5 L | Vss, mean ([1]; i.v. 0.3 mg): 15.0 L | tmax, mean ([1]; i.v. 0.3 mg): 5.2 h | tmax, median ([1]; i.v. 0.3 mg): 5.5 h | AUC, geometric mean ([1]; i.v. 0.45 mg): 34.1 ng·h/mL | AUC, mean ([1]; i.v. 0.45 mg): 34.5 ng·h/mL | Cmax, geometric mean ([1]; i.v. 0.45 mg): 6.20 ng/mL | Cmax, mean ([1]; i.v. 0.45 mg): 6.26 ng/mL | Tot. CL, geometric mean ([1]; i.v. 0.45 mg): 13.2 L/h | Tot. CL, mean ([1]; i.v. 0.45 mg): 13.3 L/h | Vss, geometric mean ([1]; i.v. 0.45 mg): 15.2 L | Vss, mean ([1]; i.v. 0.45 mg): 15.5 L | tmax, mean ([1]; i.v. 0.45 mg): 5.0 h | tmax, median ([1]; i.v. 0.45 mg): 5.0 h | AUC, geometric mean ([1]; i.v. 0.6 mg): 46.5 ng·h/mL | AUC, mean ([1]; i.v. 0.6 mg): 47.5 ng·h/mL | Cmax, geometric mean ([1]; i.v. 0.6 mg): 8.32 ng/mL | Cmax, mean ([1]; i.v. 0.6 mg): 8.45 ng/mL | Tot. CL, geometric mean ([1]; i.v. 0.6 mg): 12.9 L/h | Tot. CL, mean ([1]; i.v. 0.6 mg): 13.2 L/h | Vss, geometric mean ([1]; i.v. 0.6 mg): 15.4 L | Vss, mean ([1]; i.v. 0.6 mg): 16.3 L | tmax, mean ([1]; i.v. 0.6 mg): 5.4 h | tmax, median ([1]; i.v. 0.6 mg): 6.0 h | AUC, geometric mean ([1]; i.v. 0.9 mg): 71.8 ng·h/mL | AUC, mean ([1]; i.v. 0.9 mg): 72.5 ng·h/mL | Cmax, geometric mean ([1]; i.v. 0.9 mg): 12.7 ng/mL | Cmax, mean ([1]; i.v. 0.9 mg): 12.8 ng/mL | T1/2, harmonic mean ([1]; i.v. 0.9 mg): ~1.7 h | T1/2, mean ([1]; i.v. 0.9 mg): 2.0 h | Tot. CL, geometric mean ([1]; i.v. 0.9 mg): 12.5 L/h | Tot. CL, mean ([1]; i.v. 0.9 mg): 12.7 L/h | Vss, geometric mean ([1]; i.v. 0.9 mg): 15.3 L | Vss, mean ([1]; i.v. 0.9 mg): 15.5 L | tmax, mean ([1]; i.v. 0.9 mg): 5.3 h | tmax, median ([1]; i.v. 0.9 mg): 6.0 h | dose proportionality of AUC and Cmax ([1]; i.v., 0.1-0.9 mg): proportionality for both parameters | harmonic mean terminal half-life ([1]; i.v., dose groups other than 0.6 and 0.9 mg): 1.2 to 1.3 h | exposure (AUC, Cmax), women versus men ([1]; i.v., also s.c.): higher exposure in women than in men | terminal half-life ([1]; route not stated): 1.5 to 2 h | Δ PP (mean) ([2]; 25 μg/kg, 0 min): 0.0 mmHg | Δ PP (mean) ([2]; 25 μg/kg, 1 min): −0.3 mmHg | Δ PP (mean) ([2]; 25 μg/kg, 2 min): −0.8 mmHg | Δ PP (mean) ([2]; 25 μg/kg, 3 min): −1.3 mmHg | Δ PP (mean) ([2]; 25 μg/kg, 5 min): −1.8 mmHg | Δ PP (mean) ([2]; 25 μg/kg, 7 min): −1.9 mmHg | Δ PP (mean) ([2]; 25 μg/kg, 10 min): −2.1 mmHg | Δ PP (mean) ([2]; 25 μg/kg, 15 min): −2.2 mmHg | Δ PP (mean) ([2]; 25 μg/kg, 20 min): −2.3 mmHg | Δ PP (mean) ([2]; 25 μg/kg, 30 min): −2.3 mmHg | Δ PP (mean) ([2]; 25 μg/kg, 60 min): −2.2 mmHg | Δ PP (mean) ([2]; 25 μg/kg, 90 min): −1.8 mmHg | Δ PP (mean) ([2]; 100 μg/kg, 0 min): 0.0 mmHg | Δ PP (mean) ([2]; 100 μg/kg, 1 min): −0.5 mmHg | Δ PP (mean) ([2]; 100 μg/kg, 2 min): −1.2 mmHg | Δ PP (mean) ([2]; 100 μg/kg, 3 min): −1.6 mmHg | Δ PP (mean) ([2]; 100 μg/kg, 5 min): −2.1 mmHg | Δ PP (mean) ([2]; 100 μg/kg, 7 min): −2.5 mmHg | Δ PP (mean) ([2]; 100 μg/kg, 10 min): −2.5 mmHg | Δ PP (mean) ([2]; 100 μg/kg, 15 min): −2.4 mmHg | Δ PP (mean) ([2]; 100 μg/kg, 20 min): −2.3 mmHg | Δ PP (mean) ([2]; 100 μg/kg, 30 min): −2.2 mmHg | Δ PP (mean) ([2]; 100 μg/kg, 60 min): −2.0 mmHg | Δ PP (mean) ([2]; 100 μg/kg, 90 min): −1.7 mmHg | Δ PP (mean) ([2]; 500 μg/kg, 0 min): 0.0 mmHg | Δ PP (mean) ([2]; 500 μg/kg, 1 min): −1.2 mmHg | Δ PP (mean) ([2]; 500 μg/kg, 2 min): −1.9 mmHg | Δ PP (mean) ([2]; 500 μg/kg, 3 min): −2.5 mmHg | Δ PP (mean) ([2]; 500 μg/kg, 5 min): −2.9 mmHg | Δ PP (mean) ([2]; 500 μg/kg, 7 min): −3.3 mmHg | Δ PP (mean) ([2]; 500 μg/kg, 10 min): −2.9 mmHg | Δ PP (mean) ([2]; 500 μg/kg, 15 min): −3.5 mmHg | Δ PP (mean) ([2]; 500 μg/kg, 20 min): −3.8 mmHg | Δ PP (mean) ([2]; 500 μg/kg, 30 min): −3.9 mmHg | Δ PP (mean) ([2]; 500 μg/kg, 60 min): −3.4 mmHg | Δ PP (mean) ([2]; 500 μg/kg, 90 min): −3.7 mmHg | maximum ΔPP ([2]; SC 25 jag/kg (so in the source)): −2.3±0.2 mmHg | maximum ΔPP ([2]; SC 100 jag/kg (so in the source)): −2.5±0.3 mmHg | maximum ΔPP ([2]; SC 500 jag/kg (so in the source)): −3.9±0.8 mmHg
